Assay results as given in US11473034B2, “Highly stable and alkaline cleaning solutions and soluble surfactant” (EVONIK OPERATIONS GMBH, priority 2018, dated 2022).

Assay: Foaming properties (automated shake test, foam volume relative to solution and foam volume)
Format: physicochemical
Conditions: 2 wt % in 45% KOH
Description: Determining the Foaming Properties of Surfactants
Foaming results from surfactants occupying the air/solution interface to stabilize films of solution that encircle air under agitation. Surfactants may produce more or less foam and contribute to higher or lower stability of these foams. This characteristic of a surfactant may be shown by shaking a tube in a controlled, repeatable fashion (generally through the use of automation) and then measuring the volume of foam in the tube relative to the volume of both foam and solution. Numerous examples of variations on this method may be found in scientific literature, such as Amaral, das Neves, J., Oliveira, Â. Z., and Bahia, M. F., “Foamability of Detergent Solutions Prepared with Different Types of Surfactants and Waters”, Journal of Surfactants and Detergents, 11, 275-278 (2008).
The foaming properties of solutions of Monosodium Cyclohexylamine Dipropionate (Example 1), Monosodium Butyloxypropylamine Dipropionate (Example 2), and 1.5 Sodium Butyloxypropylaminopropylamine Tripropionate (Example 3), prepared as 2 wt % in 45% KOH, were examined. Samples of each solution were shaken vigorously in an automated apparatus to ensure identical treatment of each sample and the volume of foam relative to the total volume of solution and foam was determined.

## 1.5 Sodium Butyloxypropylaminopropylamine Tripropionate [Example 3]
1 Minute
  Foam Volume (as Percentage of Solution and Foam Volume): 57.5 Percentage of Solution and Foam Volume
3 Minutes
  Foam Volume (as Percentage of Solution and Foam Volume): 53.1 Percentage of Solution and Foam Volume
Initial
  Foam Volume (as Percentage of Solution and Foam Volume): 57.6 Percentage of Solution and Foam Volume
